According to US12410153B2, “Compounds, compositions and methods” (Avalo Therapeutics, Inc., priority 2014, dated 2025):

Key:
[1] = Single-dose pharmacokinetics in monkeys (oral and IV); type: in vivo; conditions: male, rhesus monkey, plasma
Description: Male Sprague-Dawley rats (N=8; N=4 oral and N=4 intravenous [IV]) weighing approximately 250-280 g and male rhesus monkeys (N=4, crossover) weighing 6.0-8.8 kg were used for the PK studies. In rats, the IV dose of crystalline Form II of Compound (I) at 2 mg/kg (0.4 mL/kg) was administered as a bolus and the oral dose was administered by gavage at 15 mg/kg (5 mL/kg). In monkeys, the IV dose of Form II at 2 mg/kg (0.1 mL/kg) was administered as a slow bolus and the oral dose was administered via nasogastric tube at 15 mg/kg (5 mL/kg). Blood samples were serially collected pre-dose, and at 0.083 (IV only), 0.25, 0.50, 1, 2, 4, 6, 8, 10, 24, 48, 72, and 96 h post-dose. The concentrations of Form II in rat and monkey plasma were determined by LC/MS/MS analysis in the positive ion mode using a heated nebulizer interface. The lower limit of quantitation was 2.5 ng/mL (approximately 0.00697 μM).

Sprague-Dawley rats [2] = experiment: Locomotor assay; type: in vivo, rat
Description: To confirm that the effect of Form II in the forced swim test was not due to a general increase in activity levels, rats were subjected to a locomotor assay following oral Form II administration. Adult male Sprague-Dawley rats (N=42) were randomly assigned across the treatment groups (vehicle or Compound (I) at 0.1, 0.3, 1, 3, 10, and 30 mg/kg; N=6/group). Locomotor activity was assessed during the light cycle in photocell-monitored cages (Hamilton Kinder, San Diego, CA). Each cage consisted of a standard plastic rat cage (24×45.5 cm) surrounded by a stainless steel frame. Infrared photocell beams were located across the long axis of the frame to measure the ambulatory distance traveled. A second set of beams was placed above the floor and was used to measure rearing activity. Photocell beam interruptions were recorded by a computer system. Filter tops were placed on top of the test enclosures during testing. Rats were administered either vehicle or test compound via oral gavage twice on Day 1 (approximately 24 h before the test and prior to dark cycle) and once on Day 2 (45 min prior to placing in the locomotor cages for a 60-min test). Locomotor activity was captured in 5-min bins.

Sprague-Dawley rats [3] = experiment: Rat forced swim test 24 hours after administration; type: in vivo; conditions: 10 mg/kg, p.o., 24 hours before test, p<0.05
Description: This study aimed to evaluate the duration of the antidepressant-like effects of Form II of Compound (I) using the forced swim test in male, Sprague-Dawley rats. Clinically effective antidepressant compounds reduce immobility time and increase swimming in rodents subjected to this test. Rats received Compound (I) (10 mg/kg, p.o.) or ketamine (10 mg/kg, i.p.) and 24 hours later were subjected to testing. […] The data represent mean±SEM.

[4] = system: systemic blood pressure and heart rate; experiment: Blood pressure profile in chronically instrumented (telemetered) rats; type: in vivo, rat; conditions: for DAP change / PP change / SAP change / Activity change / HR change / MAP change: 1 hour post dose, vehicle subtracted, mean ± SEM; for Activity change / HR change / MAP change: listed as crystalline Form II of Compound (I)
Description: A single oral gavage dose was administered (volume: 5 mL/kg). […] Following the completion of the Latin square, two additional dose concentrations were evaluated (0.6 and 10 mg/kg, n=3 per group).
All IV doses were administered in manually restrained rats via tail vena-puncture. It should be noted that vehicle controls were also administered.
A 24-hour recording was performed prior to dosing (vehicle alone) and after each oral dose.

[5] = target: T1, NMDA-GluN2B receptors, rat whole brain homogenate (Rattus norvegicus, UniProt P35439+Q00960); experiment: Radioligand binding, rat whole brain homogenate; conditions: geometric mean
T1 construct: performed using whole brain homogenate (rat); from tissue; host or cells: rat whole brain homogenate
Description: Radioligand binding assays were performed at room temperature (or 37° C.) in 96-well microtiter plates with a final assay volume of […] in 20 mM HEPES buffer (pH 7.4) containing 150 mM NaCl. […] Nonspecific binding was assessed using N-(3-chlorobenzyl)-4-iodobenzimidamide (final concentration, 10 μM), and total binding was measured by addition of DMSO (final concentration, 2%). L(tk−) cell membranes expressing human GluN1a/GluN2B receptors (final concentration, 40 pM) and [^3H]-[(E)-N1-(2-methoxybenzyl)-cinnamamidine] (final concentration, 1 nM) were added to all wells of the microtiter plate. After 3 h (24 h or 48 h) of incubation at room temperature (or 37° C.), samples were filtered through Packard GF/B filters (presoaked in 0.05% polyethylenimine [PEI; Sigma P-3143]) and washed 10 times with 1 mL of cold 20 mM HEPES buffer per wash. After vacuum drying of the filter plates, 50 μL of Packard Microscint-20 was added and the bound radioactivity determined in a Packard TopCount.
Analogous binding experiments, to those described above for the cloned human receptor expressed in L(tk−) cells, were also performed using whole brain homogenate (rat), frontal cortex homogenate (dog and rhesus monkey), and temporal cortex homogenate (human).

[6] = rhesus, PO 15 mg/kg, mean (S.D.)
[7] = 1 mg/kg PO in β1 AR blocked animals (atenolol 1 mg/kg), 1 hour post dosing

T1 sequence (Q00960 27-1482, other chains not shown): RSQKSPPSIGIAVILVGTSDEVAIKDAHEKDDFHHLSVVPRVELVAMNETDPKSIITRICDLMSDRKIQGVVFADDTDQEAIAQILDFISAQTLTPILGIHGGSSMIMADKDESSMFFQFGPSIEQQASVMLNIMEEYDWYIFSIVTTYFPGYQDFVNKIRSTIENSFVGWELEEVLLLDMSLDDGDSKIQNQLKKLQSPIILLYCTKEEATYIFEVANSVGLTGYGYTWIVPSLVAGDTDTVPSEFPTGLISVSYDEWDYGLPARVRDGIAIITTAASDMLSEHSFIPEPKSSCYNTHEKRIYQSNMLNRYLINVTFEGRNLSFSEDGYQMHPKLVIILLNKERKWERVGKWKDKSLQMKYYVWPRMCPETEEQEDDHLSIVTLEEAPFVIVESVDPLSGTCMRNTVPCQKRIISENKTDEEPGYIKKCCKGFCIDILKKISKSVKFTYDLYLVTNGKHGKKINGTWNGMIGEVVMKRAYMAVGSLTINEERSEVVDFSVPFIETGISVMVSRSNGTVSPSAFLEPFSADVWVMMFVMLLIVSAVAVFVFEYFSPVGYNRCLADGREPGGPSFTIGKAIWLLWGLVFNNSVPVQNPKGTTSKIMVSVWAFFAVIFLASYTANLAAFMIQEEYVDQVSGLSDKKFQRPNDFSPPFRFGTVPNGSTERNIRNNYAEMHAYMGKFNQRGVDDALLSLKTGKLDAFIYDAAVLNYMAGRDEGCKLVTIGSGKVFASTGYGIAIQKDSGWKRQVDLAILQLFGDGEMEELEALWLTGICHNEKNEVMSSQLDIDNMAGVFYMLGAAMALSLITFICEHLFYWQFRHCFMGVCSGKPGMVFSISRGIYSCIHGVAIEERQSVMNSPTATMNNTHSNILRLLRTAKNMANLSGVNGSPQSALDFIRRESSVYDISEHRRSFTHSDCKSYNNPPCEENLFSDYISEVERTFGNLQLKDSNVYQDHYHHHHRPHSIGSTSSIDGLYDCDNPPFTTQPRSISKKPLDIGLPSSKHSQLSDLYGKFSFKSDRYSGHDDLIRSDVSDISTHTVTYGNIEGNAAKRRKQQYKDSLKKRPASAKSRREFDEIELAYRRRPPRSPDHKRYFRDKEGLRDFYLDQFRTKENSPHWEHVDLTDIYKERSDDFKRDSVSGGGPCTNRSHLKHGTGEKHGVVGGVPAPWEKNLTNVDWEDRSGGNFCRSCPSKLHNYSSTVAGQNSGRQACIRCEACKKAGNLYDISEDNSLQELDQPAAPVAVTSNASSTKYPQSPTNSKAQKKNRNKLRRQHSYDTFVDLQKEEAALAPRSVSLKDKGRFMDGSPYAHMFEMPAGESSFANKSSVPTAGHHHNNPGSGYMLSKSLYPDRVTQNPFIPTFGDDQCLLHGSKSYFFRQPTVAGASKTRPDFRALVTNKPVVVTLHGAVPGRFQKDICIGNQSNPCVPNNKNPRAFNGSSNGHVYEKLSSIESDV

`Cc1ccc(COC(=O)N2CC[C@H](CNc3ncccn3)[C@H](F)C2)cc1` [Form II, 4-methylbenzyl (3S, 4R)-3-fluoro-4-[(pyrimidin-2-ylamino)methyl] piperidine-1-carboxylate] gave a bioavailability ([1]; 15 mg/kg, dose-normalized AUC0-∞ after IV and PO, crossover) of 50%, a Tmax ([1]; po, 15 mg/kg, PO 15 mg/kg, mean (S.D.)) of about 2 h and a half-life ([1]; IV 2 mg/kg, mean (S.D.)) of 4.2 h. It also gave a clearance ([1]; IV 2 mg/kg, mean (S.D.), read-out: CLp) of 15.1 mL/min/kg, a Vd ([1]; IV 2 mg/kg, mean (S.D.), read-out: Vdss) of 2.9 L/kg and an AUC(0-inf) ([1]; rhesus, IV 2 mg/kg, mean (S.D.)) of 6.67 µM·h. For the same compound, the AUC(0-inf) [1, 6] was 25.1 µM·h, the Cmax [1, 6] was 3.6 µM and the locomotor effects (Sprague-Dawley rats [2]; 0.1 and 0.3 mg/kg dose groups) was “No locomotor effects”. The ED50 (Sprague-Dawley rats [2]; Rattus norvegicus, read-out: ED50 for increase in locomotor activity) was about 2 mg/kg, the distance traveled (Sprague-Dawley rats [2]; first 5 min of testing, 1, 3, 10, and 30 mg/kg vs vehicle) was “significantly increased” and the “RO corresponding to locomotor ED50” value (Sprague-Dawley rats [2]; rat, in vivo) was about 75%. For the same compound, the total distance traveled (Sprague-Dawley rats [2]; summed over 60-min test, 1, 3, 10, and 30 mg/kg vs vehicle) was “significantly increased”, the immobility (Sprague-Dawley rats [3]) was “reduced immobility” and the swim time (Sprague-Dawley rats [3]) was “increased swim time significantly”. It also gave a DAP change ([4]; 0.3 mg/kg PO) of 4.1 ± 0.9 mmHg, a PP change ([4]; 0.3 mg/kg PO) of 0.1 ± 1.0 mmHg and an SAP change ([4]; 0.3 mg/kg PO) of 4.3 ± 1.2 mmHg. For the same compound, the Activity change ([4]; 0.3 mg/kg PO) was 0.012±0.025 arbitrary unit, the HR change ([4]; 0.3 mg/kg PO) was 15±10 bpm and the MAP change ([4]; 0.3 mg/kg PO) was 4.2±0.9 mmHg. For the same compound, the DAP change ([4]; 0.6 mg/kg PO) was 7.8 ± 1.1 mmHg, the PP change ([4]; 0.6 mg/kg PO) was −1.5 ± 1.4 mmHg and the SAP change ([4]; 0.6 mg/kg PO) was 6.3 ± 1.6 mmHg. It also gave an Activity change ([4]; 0.6 mg/kg PO) of 0.003±0.033 arbitrary unit, an HR change ([4]; 0.6 mg/kg PO) of 10±15 bpm and an MAP change ([4]; 0.6 mg/kg PO) of 6.8±1.2 mmHg. The “MAP increase with dosing” value ([4]; 1 mg/kg PO in the setting of α1 AR blockade (prazosin 200 μg/kg)) was 11.3±2.0 mmHg, the “HR change vs pre-blockade baseline” value ([4]; 1 mg/kg PO in the setting of α1 AR blockade (prazosin 200 μg/kg), 1 hour post dosing) was 118±20 bpm and the HR increase post-dosing ([4]; 1 mg/kg PO in β1 AR blocked animals (atenolol 1 mg/kg)) was 53±17 bpm. For the same compound, the “HR change vs pre-blockade baseline” value [4, 7] was −7±17 bpm, the “MAP change vs pre-blockade baseline” value [4, 7] was 5.8±4.8 mmHg and the DAP change ([4]; 1.0 mg/kg PO) was 15.2 ± 3.0 mmHg. The PP change ([4]; 1.0 mg/kg PO) was 1.4 ± 1.1 mmHg, the SAP change ([4]; 1.0 mg/kg PO) was 16.8 ± 3.7 mmHg and the Activity change ([4]; 1.0 mg/kg PO) was 0.049±0.037 arbitrary unit. The HR change ([4]; 1.0 mg/kg PO) was 34±13 bpm, the MAP change ([4]; 1.0 mg/kg PO) was 15.7±3.2 mmHg and the DAP change ([4]; 3.0 mg/kg PO) was 15.0 ± 2.0 mmHg. It also gave a PP change ([4]; 3.0 mg/kg PO) of 4.0 ± 0.9 mmHg, an SAP change ([4]; 3.0 mg/kg PO) of 19.2 ± 2.4 mmHg and an Activity change ([4]; 3.0 mg/kg PO) of 0.174±0.048 arbitrary unit. The HR change ([4]; 3.0 mg/kg PO) was 66±9 bpm, the MAP change ([4]; 3.0 mg/kg PO) was 17.1±2.3 mmHg and the DAP change ([4]; 10 mg/kg PO) was 17.3 ± 1.9 mmHg. It also gave a PP change ([4]; 10 mg/kg PO) of 3.1 ± 1.3 mmHg, an SAP change ([4]; 10 mg/kg PO) of 20.7 ± 2.4 mmHg and an Activity change ([4]; 10 mg/kg PO) of 0.232±0.057 arbitrary unit. For the same compound, the HR change ([4]; 10 mg/kg PO) was 71±25 bpm, the MAP change ([4]; 10 mg/kg PO) was 19.1±2.4 mmHg and the Ki ([5]; 37° C.) was 14 nM. It also gave a Ki ([5]; room temp.) of 3.3 nM.
